The values that follow come from patent US20240368135A1 (VERTEX PHARMACEUTICALS INCORPORATED, priority 2021, published 2024).

human NaV 1.8, sequence (Q9Y5Y9 126-399 limits assumed): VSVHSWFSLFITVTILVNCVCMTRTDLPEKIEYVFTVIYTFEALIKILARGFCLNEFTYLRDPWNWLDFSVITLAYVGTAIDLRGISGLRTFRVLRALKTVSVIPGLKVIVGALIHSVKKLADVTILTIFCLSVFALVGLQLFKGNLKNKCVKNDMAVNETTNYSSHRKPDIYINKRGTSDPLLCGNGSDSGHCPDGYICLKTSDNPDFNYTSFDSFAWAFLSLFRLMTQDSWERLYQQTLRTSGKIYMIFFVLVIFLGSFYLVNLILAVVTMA
human NaV 1.8, sequence (Q9Y5Y9 660-890 limits assumed): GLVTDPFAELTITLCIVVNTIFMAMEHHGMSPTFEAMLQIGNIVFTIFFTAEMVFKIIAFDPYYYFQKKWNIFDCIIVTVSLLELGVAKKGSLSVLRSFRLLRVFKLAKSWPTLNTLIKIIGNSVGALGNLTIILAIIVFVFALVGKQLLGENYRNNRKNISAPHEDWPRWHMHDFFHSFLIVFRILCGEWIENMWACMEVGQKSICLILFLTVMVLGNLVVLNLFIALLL
human NaV 1.8, sequence (Q9Y5Y9 1148-1722 limits assumed): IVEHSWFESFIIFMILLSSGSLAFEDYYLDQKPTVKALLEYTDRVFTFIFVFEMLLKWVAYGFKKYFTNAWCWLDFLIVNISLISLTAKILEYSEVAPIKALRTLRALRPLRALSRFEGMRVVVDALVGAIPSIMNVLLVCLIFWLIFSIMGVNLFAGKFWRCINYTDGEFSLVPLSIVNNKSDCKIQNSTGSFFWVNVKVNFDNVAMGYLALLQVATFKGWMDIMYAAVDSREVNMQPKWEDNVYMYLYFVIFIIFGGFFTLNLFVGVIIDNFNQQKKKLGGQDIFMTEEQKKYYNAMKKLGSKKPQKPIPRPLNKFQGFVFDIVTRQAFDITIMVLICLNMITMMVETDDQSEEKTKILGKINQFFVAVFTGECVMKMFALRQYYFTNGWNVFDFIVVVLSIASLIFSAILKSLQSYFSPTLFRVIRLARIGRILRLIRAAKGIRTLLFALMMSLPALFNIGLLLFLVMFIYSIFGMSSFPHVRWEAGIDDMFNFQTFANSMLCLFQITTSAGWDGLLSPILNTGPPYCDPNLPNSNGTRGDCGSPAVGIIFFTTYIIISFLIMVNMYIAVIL

The first test addresses human NaV 1.8 (Homo sapiens, UniProt Q9Y5Y9). Put plainly: E-VIPR assay detecting and measuring NaV inhibition properties. The test is classed as cell-based. As to conditions: HEK cells expressing truncated human NaV 1.8; in the presence of human serum (compound numbers followed by *); read-out: IC50 in the E-VIPR Assay, performed in the presence of human serum. In a few lines:
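Membrane potential was followed by coumarin/oxonol FRET during electrical field stimulation of matrigel-seeded HEK cells carrying truncated human NaV1.8 plus KIR2.1. Dosing used 11 points, 3-fold steps, top 300 nM final, 0.625% DMSO, with or without 25% human serum.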
As to `COc1c([C@H]2C[C@@](C)(C(F)(F)F)O[C@@H]2C(=O)Nc2cc(C(O)CO)ncc2F)ccc(F)c1F` (single isomer, unassigned) [Compound 690], the IC50 (usually the concentration needed to halve the response being measured) is at least 1000 nM.
The same measure, in the same setting: as for `COc1c(C2CC(C)(C(F)(F)F)OC2C(=O)Nc2ccnc(C(O)C(C)O)c2)ccc(F)c1F` (single isomer, unassigned) [Compound 697], the figure is at least 1000 nM.

The test is the same for the next values; noted with them: HEK cells expressing truncated human NaV 1.8; no human serum; read-out: IC50 in the E-VIPR Assay.
In the case of `CNC1CC(=O)N(c2cc(NC(=O)[C@@H]3O[C@@](C)(C(F)(F)F)[C@@H](C)[C@H]3c3ccc(F)c(F)c3OC)ccn2)C1` (single isomer, unassigned) [Compound 499, rel-(2R*,3S*,4S*,5R*)-3-(3,4-difluoro-2-methoxyphenyl)-4,5-dimethyl-N-(2-(4-(methylamino)-2-oxopyrrolidin-1-yl)pyridin-4-yl)-5-(trifluoromethyl)tetrahydrofuran-2-carboxamide], the IC50 lay within 10 to 100 nM.
For `COCCn1ccc(NC(=O)[C@@H]2O[C@@](C)(C(F)(F)F)[C@@H](C)[C@H]2c2ccc(F)c(F)c2OCCO)n1` [Compound 552, (2R,3S,4S,5R)-3-(3,4-difluoro-2-(2-hydroxyethoxy)phenyl)-N-(1-(2-methoxyethyl)-1H-pyrazol-3-yl)-4,5-dimethyl-5-(trifluoromethyl)tetrahydrofuran-2-carboxamide], the IC50 is at least 1000 nM.
Still for that read-out and setting: as for `C[C@@H]1[C@H](c2ccc(F)c(F)c2OC(F)F)[C@@H](C(=O)Nc2cc(S(C)(=O)=O)ccn2)O[C@]1(C)C(F)(F)F` (single isomer, unassigned) [Compound 71], the figure is at least 1000 nM; as for `COCCOc1c([C@H]2[C@H](C(=O)Nc3ccnc(N4C(=O)CN(C)C[C@H]4C)c3)O[C@@](C)(C(F)(F)F)[C@H]2C)ccc(F)c1F` [Compound 652, (2R,3S,4S,5R)-3-[3,4-difluoro-2-(2-methoxyethoxy)phenyl]-N-[2-[(2R)-2,4-dimethyl-6-oxo-piperazin-1-yl]-4-pyridyl]-4,5-dimethyl-5-(trifluoromethyl)tetrahydrofuran-2-carboxamide], below 10 nM.
For `C[C@H]1[C@@H](c2ccc(F)c(F)c2OC(F)F)[C@H](C(=O)Nc2ccn(C)c(=O)c2)O[C@@]1(C)C(F)(F)F` (single isomer, unassigned) [Compound 78], the half-maximal inhibitory concentration (IC50) is below 10 nM.
The same measure, in the same setting: as for `CN=S(C)(=O)c1ccc(NC(=O)[C@@H]2O[C@@](C)(C(F)(F)F)[C@@H](C)[C@H]2c2ccc(F)c(F)c2OC)cn1` (single isomer, unassigned) [Compound 338], the figure is 10 to 100 nM; as for `C=Cc1c([C@H]2[C@H](C(=O)Nc3cn(C(F)F)nc3C)O[C@@](C)(C(F)(F)F)[C@H]2C)ccc(F)c1F` [Compound 676, (2R,3S,4S,5R)-3-(3,4-difluoro-2-vinylphenyl)-N-(1-(difluoromethyl)-3-methyl-1H-pyrazol-4-yl)-4,5-dimethyl-5-(trifluoromethyl)tetrahydrofuran-2-carboxamide], below 10 nM; as for `CC(=O)N(C)c1cc(NC(=O)[C@@H]2O[C@@](C)(C(F)(F)F)[C@@H](C)[C@H]2c2ccc(F)c(F)c2OCCN2CC3(COC3)C2)ccn1` [Compound 637, (2R,3S,4S,5R)-N-[2-[acetyl(methyl)amino]-4-pyridyl]-3-[3,4-difluoro-2-[2-(2-oxa-6-azaspiro[3.3]heptan-6-yl)ethoxy]phenyl]-4,5-dimethyl-5-(trifluoromethyl)tetrahydrofuran-2-carboxamide], 10 to 100 nM.
Consider `COc1c([C@H]2[C@H](C(=O)Nc3ccnc(N4CC(N)CC4=O)c3)O[C@@](C)(C(F)(F)F)[C@H]2C)ccc(F)c1F` (single isomer, unassigned) [Compound 495, rel-(2R*,3S*,4S*,5R*)-N-(2-(4-amino-2-oxopyrrolidin-1-yl)pyridin-4-yl)-3-(3,4-difluoro-2-methoxyphenyl)-4,5-dimethyl-5-(trifluoromethyl)tetrahydrofuran-2-carboxamide], for which the half-inhibitory concentration (IC50) is below 10 nM.
Turning to `COc1c(C2C(C(=O)Nc3cccc(P(C)(C)=O)c3)OC(C)(C(F)(F)F)C2C)ccc(F)c1F` (single isomer, unassigned) [Compound 42, 3-(3,4-difluoro-2-methoxy-phenyl)-N-(3-dimethylphosphorylphenyl)-4,5-dimethyl-5-(trifluoromethyl)tetrahydrofuran-2-carboxamide], the IC50 is below 10 nM.
Still for that read-out and setting: as for `COc1c([C@H]2[C@H](C(=O)Nc3ccnc(N4C(=O)CN(C)C[C@H]4C)c3)O[C@@](C)(C(F)(F)F)[C@H]2C)ccc(F)c1F` [Compound 465, (2R,3S,4S,5R)-3-(3,4-difluoro-2-methoxyphenyl)-N-(2-((R)-2,4-dimethyl-6-oxopiperazin-1-yl)pyridin-4-yl)-4,5-dimethyl-5-(trifluoromethyl)tetrahydrofuran-2-carboxamide], the figure is below 10 nM; as for `C[C@@H]1CN(C)CC(=O)N1c1cc(NC(=O)[C@@H]2O[C@@](C)(C(F)(F)F)[C@@H](C)[C@H]2c2ccc(F)c(F)c2OC(F)F)ccn1` [Compound 517, (2R,3S,4S,5R)-3-[2-(difluoromethoxy)-3,4-difluoro-phenyl]-N-[2-[(2R)-2,4-dimethyl-6-oxo-piperazin-1-yl]-4-pyridyl]-4,5-dimethyl-5-(trifluoromethyl)tetrahydrofuran-2-carboxamide], below 10 nM.
Same read-out and setting: under `C[C@H]1[C@@H](c2ccc(F)c(F)c2OCCN=S(C)(C)=O)[C@H](C(=O)Nc2ccnc(CO)c2)O[C@@]1(C)C(F)(F)F` [Compound 640, (2R,3S,4S,5R)-3-(2-(2-((dimethyl(oxo)-λ^6-sulfaneylidene)amino)ethoxy)-3,4-difluorophenyl)-N-(2-(hydroxymethyl)pyridin-4-yl)-4,5-dimethyl-5-(trifluoromethyl)tetrahydrofuran-2-carboxamide] stands 10 to 100 nM.
`CCOc1c([C@H]2[C@H](C(=O)Nc3ccn(C)c(=O)c3)O[C@@](C)(C(F)(F)F)[C@H]2C)ccc(F)c1F` (stereo in doubt) [Compound 103, rel-(2R,3S,4S,5R)-3-(2-ethoxy-3,4-difluorophenyl)-4,5-dimethyl-N-(1-methyl-2-oxo-1,2-dihydropyridin-4-yl)-5-(trifluoromethyl)tetrahydrofuran-2-carboxamide]: the IC50 is below 10 nM.
Still for that read-out and setting: under `COc1c([C@H]2[C@H](C(=O)Nc3ccnc(N4CCN(C)CCC4=O)c3)O[C@@](C)(C(F)(F)F)[C@H]2C)ccc(F)c1F` [Compound 466, (2R,3S,4S,5R)-3-(3,4-difluoro-2-methoxyphenyl)-4,5-dimethyl-N-(2-(4-methyl-7-oxo-1,4-diazepan-1-yl)pyridin-4-yl)-5-(trifluoromethyl)tetrahydrofuran-2-carboxamide] stands 10 to 100 nM; under `COCC(N)c1cc(NC(=O)[C@@H]2O[C@@](C)(C(F)(F)F)[C@@H](C)[C@H]2c2ccc(F)c(F)c2OC)ncn1` (single isomer, unassigned) [Compound 217], 10 to 100 nM.
On the same count and under the same terms, under `COc1c([C@H]2[C@H](C(=O)Nc3ccnc(OC(F)F)c3)O[C@@](C)(C(F)(F)F)[C@H]2C)ccc(F)c1F` [Compound 189, (2R,3S,4S,5R)-3-(3,4-difluoro-2-methoxyphenyl)-N-(2-(difluoromethoxy)pyridin-4-yl)-4,5-dimethyl-5-(trifluoromethyl)tetrahydrofuran-2-carboxamide] stands 10 to 100 nM; under `C[C@H]1[C@@H](c2ccc(F)c(F)c2OCCN2CC3(COC3)C2)[C@H](C(=O)Nc2cccnc2)O[C@@]1(C)C(F)(F)F` [Compound 636], 10 to 100 nM.
With `COc1c([C@H]2[C@H](C(=O)Nc3ccn4c(=O)n(CCO)nc4c3)O[C@@](C)(C(F)(F)F)[C@H]2C)ccc(F)c1F` [Compound 430, (2R,3S,4S,5R)-3-(3,4-difluoro-2-methoxy-phenyl)-N-[2-(2-hydroxyethyl)-3-oxo-[1,2,4]triazolo[4,3-a]pyridin-7-yl]-4,5-dimethyl-5-(trifluoromethyl)tetrahydrofuran-2-carboxamide], the IC50 was in the range of 10 to 100 nM.
The same measure, in the same setting: as for `COc1c([C@H]2[C@H](C(=O)Nc3ccc(CC4CCNCC4)nc3)O[C@@](C)(C(F)(F)F)[C@H]2C)ccc(F)c1F` [Compound 215, (2R,3S,4S,5R)-3-(3,4-difluoro-2-methoxyphenyl)-4,5-dimethyl-N-(6-(piperidin-4-ylmethyl)pyridin-3-yl)-5-(trifluoromethyl)tetrahydrofuran-2-carboxamide], the figure is 10 to 100 nM; as for `COc1c([C@H]2[C@H](C(=O)Nc3cc(O[C@@H]4COC[C@@H]4O)ncn3)O[C@@](C)(C(F)(F)F)[C@H]2C)ccc(F)c1F` (relative stereo) [Compound 238, (2R*,3S*,4S*,5R*)-3-(3,4-difluoro-2-methoxyphenyl)-N-(6-((cis-4-hydroxytetrahydrofuran-3-yl)oxy)pyrimidin-4-yl)-4,5-dimethyl-5-(trifluoromethyl)tetrahydrofuran-2-carboxamide], 10 to 100 nM.
For `CCS(=O)(=O)c1cc(NC(=O)C2OC(C)(C(F)(F)F)C(C)C2c2ccc(F)c(F)c2OC)ccn1` (single isomer, unassigned) [Compound 52, 3-(3,4-difluoro-2-methoxy-phenyl)-N-(2-ethylsulfonyl-4-pyridyl)-4,5-dimethyl-5-(trifluoromethyl)tetrahydrofuran-2-carboxamide], the half-inhibitory concentration (IC50) is at least 1000 nM.
As for `CNCC(=O)N(C)c1cc(NC(=O)[C@@H]2O[C@@](C)(C(F)(F)F)[C@@H](C)[C@H]2c2ccc(F)c(F)c2OC)ccn1` [Compound 486, (2R,3S,4S,5R)-3-(3,4-difluoro-2-methoxyphenyl)-4,5-dimethyl-N-(2-(N-methyl-2-(methylamino)acetamido)pyridin-4-yl)-5-(trifluoromethyl)tetrahydrofuran-2-carboxamide], the IC50 is below 10 nM.
As for `CC(C)Oc1c(C2C(C(=O)Nc3cc(S(C)(=O)=O)ccn3)OC(C)(C(F)(F)F)C2C)ccc(F)c1F` (centres unmarked) [Compound 116, 3-(3,4-difluoro-2-isopropoxy-phenyl)-4,5-dimethyl-N-(4-methylsulfonyl-2-pyridyl)-5-(trifluoromethyl)tetrahydrofuran-2-carboxamide], the half-maximal inhibitory concentration (IC50) was in the range of 100 to 1000 nM.
